Measured values reported in PMC3307704 (PLoS ONE, 2012).
Entries after “also recorded” stand apart in the source; their conditions may differ. Where two headings read alike, the source gives them in different places.

Assays:
Human Aβ(1–42) = target: T1, Human Aβ(1–42) (Homo sapiens, UniProt P05067); test: Aβ peptide oligomerization reaction with capture ELISA for Aβ oligomer detection; type: biochemical; details: for inhibition at 1 µM: read-out: Inhibitory activity (Aβ oligomerization)
T1 construct: Human Aβ(1–42) was purchased from AnaSpec (San Jose, CA); purchased AnaSpec (San Jose, CA)

Murine microglial cells = test: Wst-1 assay (cytotoxicity); type: cell-based; details: 24 h
[1] = tested on: low-molecular weight Aβ oligomers; details: in vitro; read-out: IC50, formation of low-molecular weight Aβ oligomers; cited from earlier work
[2] = tested on: Aβ deposition in aged APP(Swedish)-transgenic mice (Tg2576); details: dietary supplement; cited from earlier work
[3] = tested on: high-molecular weight fibrils (Aβ); details: in vitro; read-out: IC50, formation of high-molecular weight fibrils; cited from earlier work
Aβ aggregation = details: saturation of the 7-carbon linker; cited from earlier work
[4] = 1 µM compound, 200 nM monomeric Aβ peptide, 37°C, 24 h, capture ELISA

T1 sequence (P05067 672-713 limits assumed): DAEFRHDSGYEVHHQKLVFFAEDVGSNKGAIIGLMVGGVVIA

Structure (SMILES)	inhibition at 1 µM (Human Aβ(1–42); [4]) [%]	other results
COc1ccc(/C=C/C(=O)/C=C(O)/C=C/c2ccc(OC)c(O)c2)cc1O [compound 1]	80	
COc1ccc(/C=C/C(=O)/C=C(O)/C=C/c2ccc(OC)c(OC)c2)cc1OC [compound 2]		IC50 (Human Aβ(1–42)): 150 nM; Improvement of Aβ aggregation inhibitory activity over curcumin (Human Aβ(1–42); ratio of IC50 values versus curcumin): 6-7 fold; inhibition at 1 µM (Human Aβ(1–42)): 75%; LD50 value relative to that of curcumin (Murine microglial cells; printed as fold lower than curcumin): approximately 2 fold
COc1cc(/C=C/C(=O)/C(C)=C(O)/C=C/c2ccc(O)c(OC)c2)ccc1O [compound 3]	66	
COc1cc(/C=C/C(=O)/C(Cc2ccccc2)=C(O)/C=C/c2ccc(O)c(OC)c2)ccc1O [compound 4]	51	
COc1cccc(/C=C/C(=O)/C=C(O)/C=C/c2cccc(OC)c2OC)c1OC [compound 7]	45	
O=C(/C=C/c1ccc(O)c(O)c1)/C=C/c1ccc(O)c(O)c1 [compound 8]	74	
COC(=O)c1ccc(/C=C/C(=O)/C=C/c2ccc(C(=O)OC)cc2)cc1 [compound 9]	66	
O=C(/C=C/c1ccccc1)/C=C/c1ccccc1 [compound 10]	65	
COc1cc(/C=C/C(=O)/C=C/c2ccccc2)ccc1O [compound 11]	63	
COc1ccccc1/C=C/C(=O)/C=C/c1ccccc1OC [compound 12]	63	
Cc1ccc(/C=C/C(=O)/C=C/c2ccc(C)cc2)cc1 [compound 13]	62	
COc1cc(/C=C/C(=O)/C=C/c2ccc(O)c(OC)c2)ccc1O [compound 14]		inhibition at 1 µM (Human Aβ(1–42)): 58%
O=C(/C=C/c1cccc(Cl)c1)/C=C/c1cccc(Cl)c1 [compound 15]	58	
COc1cccc(/C=C/C(=O)/C=C/c2cccc(OC)c2)c1 [compound 16]	56	
O=C(/C=C/c1cccc(C(F)(F)F)c1)/C=C/c1cccc(C(F)(F)F)c1 [compound 17]	55	
CN(C)c1ccc(/C=C/C(=O)/C=C/c2ccc(N(C)C)cc2)cc1 [compound 18]	54	
COc1cc(/C=C/C(=O)/C=C/c2ccc(OC(C)=O)c(OC)c2)ccc1OC(C)=O [compound 19]	53	
O=C(/C=C/c1ccc(O)cc1)/C=C/c1ccc(O)cc1 [compound 20]	49	
COc1cc(/C=C/C(=O)CC(=O)/C=C/c2ccc(O)c(OC)c2)ccc1O [curcumin]		IC50 [1]: 1000 nM; inhibition at 1 µM (Human Aβ(1–42)): 50%; LD50 value (cytotoxicity, Wst-1) (Murine microglial cells): 40 µM; Effect on Aβ deposition [2]: reduced Aβ deposition; also recorded: significantly lowered Aβ deposition; IC50 [3]: 800 nM
COc1cc(CCC(=O)CC(=O)CCc2ccc(O)c(OC)c2)ccc1O [tetrahydrocurcumin]		Aβ aggregation inhibitory activity (Aβ aggregation): abolished Aβ aggregation inhibitory activity
